# Test results from ChEMBL document CHEMBL5126592, “Design, synthesis and activity against drug-resistant bacteria evaluation of C-20, C-23 modified 5-O-mycaminosyltylonolide derivatives” (Eur J Med Chem, 2022).
# Activity calls are given as the source filed them. The calls are words filed in the database; no cut-off is given here.
# Assays:
# Staphylococcus aureus [1] = assay: Antibacterial activity against Staphylococcus aureus ATCC 29213 at pH 8.6 incubated for 16 to 20 hrs in presence of 50% foetal bovine serum by broth microdilution method; format: functional; conditions: time 16-20 hrs
# Escherichia coli [2] = assay: Antibacterial activity against Escherichia coli ATCC 25922 at pH 7.6 incubated for 16 to 20 hrs by broth microdilution method; format: functional; conditions: time 16-20 hrs
# [3] = Genotoxicity in Salmonella typhimurium TA98 assessed as number of revertants at 2x10^-4 mg/plate incubated for 72 hrs in absence of liver S9 fraction by Ames test (reference value: 57.33 +/- 3.06); format: toxicity; conditions: salmonella enterica subsp. enterica serovar typhimurium, s9, 72 h
# [4] = Genotoxicity in Salmonella typhimurium TA1535 assessed as number of revertants at 8x10^-6 mg/plate incubated for 72 hrs in presence of liver S9 fraction by Ames test (reference value: 15.33 +/- 2.52); format: toxicity, subcellular; conditions: salmonella enterica subsp. enterica serovar typhimurium, s9, 72 h
# [5] = Genotoxicity in Salmonella typhimurium TA102 assessed as number of revertants at 1.6x10^-6 mg/plate incubated for 72 hrs in presence of liver S9 fraction by Ames test (reference value: 465.33 +/- 18.04); format: toxicity, subcellular; conditions: salmonella enterica subsp. enterica serovar typhimurium, s9, 72 h
# Escherichia coli [6] = assay: Antibacterial activity against Escherichia coli ATCC 25922 incubated for 16 to 20 hrs by broth microdilution method; format: functional; conditions: time 16-20 hrs
# Staphylococcus aureus [7] = assay: Antibacterial activity against Staphylococcus aureus ATCC 25923 infected in kunming mouse assessed as reduction in viable pathogens at 20 mg/kg, iv measured after 1 hr; format: functional, organism-based
# Escherichia coli [8] = assay: Antibacterial activity against Escherichia coli ATCC 25922 at pH 7.2 incubated for 16 to 20 hrs by broth microdilution method; format: functional; conditions: time 16-20 hrs
# [9] = Genotoxicity in Salmonella typhimurium TA1535 assessed as number of revertants at 4x10^-5 mg/plate incubated for 72 hrs in presence of liver S9 fraction by Ames test (reference value: 15.33 +/- 2.52); format: toxicity, subcellular; conditions: salmonella enterica subsp. enterica serovar typhimurium, s9, 72 h
# Escherichia coli [10] = assay: Antibacterial activity against Escherichia coli ATCC 25922 incubated for 16 to 20 hrs using 10^4 CFU/ml bacterial inoculum by broth microdilution method; format: functional; conditions: time 16-20 hrs
# Escherichia coli [11] = assay: Antibacterial activity against Escherichia coli ATCC 25922 at pH 7 incubated for 16 to 20 hrs by broth microdilution method; format: functional; conditions: time 16-20 hrs
# Escherichia coli [12] = assay: Antibacterial activity against Escherichia coli incubated for 16 to 20 hrs by broth microdilution method; format: functional; conditions: time 16-20 hrs
# [13] = Genotoxicity in Salmonella typhimurium TA102 assessed as number of revertants at 1x10^-3 mg/plate incubated for 72 hrs in presence of liver S9 fraction by Ames test (reference value: 465.33 +/- 18.04); format: toxicity, subcellular; conditions: salmonella enterica subsp. enterica serovar typhimurium, s9, 72 h
# Escherichia coli [14] = assay: Inhibition of protein synthesis in Escherichia coli ATCC 25922 assessed as reduction in protein content at […] measured upto 12 hrs by microporous enzyme labeling method relative to control; format: functional
# Staphylococcus aureus [15] = assay: Antibacterial activity against Staphylococcus aureus ATCC 29213 at pH 8.6 incubated for 16 to 20 hrs in presence of 10% foetal bovine serum by broth microdilution method; format: functional; conditions: time 16-20 hrs
# Escherichia coli [16] = assay: Antibacterial activity against Escherichia coli ATCC 25922 at pH 7.8 incubated for 16 to 20 hrs by broth microdilution method; format: functional; conditions: time 16-20 hrs
# [17] = Genotoxicity in Salmonella typhimurium TA98 assessed as number of revertants at 1.6x10^-6 mg/plate incubated for 72 hrs in absence of liver S9 fraction by Ames test (reference value: 57.33 +/- 3.06); format: toxicity; conditions: salmonella enterica subsp. enterica serovar typhimurium, s9, 72 h
# [18] = Genotoxicity in Salmonella typhimurium TA102 assessed as number of revertants at 1.6x10^-6 mg/plate incubated for 72 hrs in absence of liver S9 fraction by Ames test (reference value: 386.67 +/- 23.44); format: toxicity; conditions: salmonella enterica subsp. enterica serovar typhimurium, s9, 72 h
# Escherichia coli [19] = assay: Antibacterial activity against Escherichia coli ATCC 25922 at pH 7.4 incubated for 16 to 20 hrs by broth microdilution method; format: functional; conditions: time 16-20 hrs
# Staphylococcus aureus [20] = assay: Antibacterial activity against Staphylococcus aureus ATCC 29213 at pH 8.4 incubated for 16 to 20 hrs by broth microdilution method; format: functional; conditions: time 16-20 hrs
# Staphylococcus aureus [21] = assay: Antibacterial activity against Staphylococcus aureus incubated for 16 to 20 hrs by broth microdilution method; format: functional; conditions: time 16-20 hrs
# [22] = Genotoxicity in Salmonella typhimurium TA1537 assessed as number of revertants at 1x10^-3 mg/plate incubated for 72 hrs in absence of liver S9 fraction by Ames test (reference value: 22.67 +/- 2.52); format: toxicity; conditions: salmonella enterica subsp. enterica serovar typhimurium, s9, 72 h
# [23] = Genotoxicity in Salmonella typhimurium TA1535 assessed as number of revertants at 1x10^-3 mg/plate incubated for 72 hrs in presence of liver S9 fraction by Ames test (reference value: 15.33 +/- 2.52); format: toxicity, subcellular; conditions: salmonella enterica subsp. enterica serovar typhimurium, s9, 72 h
# [24] = Genotoxicity in Salmonella typhimurium TA1537 assessed as number of revertants at 4x10^-5 mg/plate incubated for 72 hrs in absence of liver S9 fraction by Ames test (reference value: 22.67 +/- 2.52); format: toxicity; conditions: salmonella enterica subsp. enterica serovar typhimurium, s9, 72 h
# [25] = Genotoxicity in Salmonella typhimurium TA100 assessed as number of revertants at 1x10^-3 mg/plate incubated for 72 hrs in presence of liver S9 fraction by Ames test (reference value: 204.33 +/- 8.14); format: toxicity, subcellular; conditions: salmonella enterica subsp. enterica serovar typhimurium, s9, 72 h
# [26] = Genotoxicity in Salmonella typhimurium TA1535 assessed as number of revertants at 1.6x10^-6 mg/plate incubated for 72 hrs in presence of liver S9 fraction by Ames test (reference value: 15.33 +/- 2.52); format: toxicity, subcellular; conditions: salmonella enterica subsp. enterica serovar typhimurium, s9, 72 h
# [27] = Genotoxicity in Salmonella typhimurium TA1535 assessed as number of revertants at 1x10^-3 mg/plate incubated for 72 hrs in absence of liver S9 fraction by Ames test (reference value: 14.33 +/- 0.58); format: toxicity; conditions: salmonella enterica subsp. enterica serovar typhimurium, s9, 72 h
# [28] = Genotoxicity in Salmonella typhimurium TA100 assessed as number of revertants at 2x10^-4 mg/plate incubated for 72 hrs in presence of liver S9 fraction by Ames test (reference value: 204.33 +/- 8.14); format: toxicity, subcellular; conditions: salmonella enterica subsp. enterica serovar typhimurium, s9, 72 h
# [29] = Genotoxicity in Salmonella typhimurium TA100 assessed as number of revertants at 8x10^-6 mg/plate incubated for 72 hrs in presence of liver S9 fraction by Ames test (reference value: 204.33 +/- 8.14); format: toxicity, subcellular; conditions: salmonella enterica subsp. enterica serovar typhimurium, s9, 72 h
# Escherichia coli [30] = assay: Antibacterial activity against Escherichia coli ATCC 25922 incubated for 16 to 20 hrs in presence of 5% foetal bovine serum by broth microdilution method; format: functional; conditions: time 16-20 hrs
# [31] = Genotoxicity in Salmonella typhimurium TA1535 assessed as number of revertants at 8x10^-6 mg/plate incubated for 72 hrs in absence of liver S9 fraction by Ames test (reference value: 14.33 +/- 0.58); format: toxicity; conditions: salmonella enterica subsp. enterica serovar typhimurium, s9, 72 h
# Staphylococcus aureus [32] = assay: Antibacterial activity against Staphylococcus aureus ATCC 29213 incubated for 16 to 20 hrs using 10^6 CFU/ml bacterial inoculum by broth microdilution method; format: functional; conditions: time 16-20 hrs
# [33] = Genotoxicity in Salmonella typhimurium TA98 assessed as number of revertants at 8x10^-6 mg/plate incubated for 72 hrs in presence of liver S9 fraction by Ames test (reference value: 43.67+/- 7.1); format: toxicity, subcellular; conditions: salmonella enterica subsp. enterica serovar typhimurium, s9, 72 h
# Escherichia coli [34] = assay: Antibacterial activity against Escherichia coli ATCC 25922 incubated for 16 to 20 hrs using 10^3 CFU/ml bacterial inoculum by broth microdilution method; format: functional; conditions: time 16-20 hrs
smiles,measurement,setting,value
CC[C@H]1OC(=O)C[C@@H](O)[C@H](C)[C@@H](O[C@@H]2O[C@H](C)[C@@H](O)[C@H](N(C)C)[C@H]2O)[C@@H](CCN(C)Cc2cn(-c3cnc4ccccc4c3)nn2)C[C@@H](C)C(=O)/C=C/C(C)=C/[C@@H]1CN1CCCCCC1,MIC,Staphylococcus aureus [1],2 µg/mL
same,MIC,Escherichia coli [2],0.5 µg/mL
same,Activity,[3],61.33
same,Activity,[4],13.67
same,Activity,[5],449.33
same,MIC,Escherichia coli [6],1 µg/mL
same,Activity,Staphylococcus aureus [7],Active
same,MIC,Escherichia coli [8],1 µg/mL
same,Activity,[9],15
same,MIC,Escherichia coli [10],0.25 µg/mL
same,MIC,Escherichia coli [11],4 µg/mL
same,MIC,Escherichia coli [12],1 µg/mL
same,Activity,[13],449.33
same,inhibition,Escherichia coli [14],32.1%
same,MIC,Staphylococcus aureus [15],0.5 µg/mL
same,MIC,Escherichia coli [16],0.5 µg/mL
same,Activity,[17],64.33
same,Activity,[18],371.33
same,MIC,Escherichia coli [19],1 µg/mL
same,MIC,Staphylococcus aureus [20],≤ 0.0625 µg/mL
same,MIC,Staphylococcus aureus [21],0.25 µg/mL
same,Activity,[22],15.33
same,Activity,[23],11
same,Activity,[24],19.67
same,Activity,[25],174.67
same,Activity,[26],16.33
same,Activity,[27],5
same,Activity,[28],220.67
same,Activity,[29],167
same,MIC,Escherichia coli [30],1 µg/mL
same,Activity,[31],13
same,MIC,Staphylococcus aureus [32],0.25 µg/mL
same,Activity,[33],45.67
same,MIC,Escherichia coli [34],0.25 µg/mL
